The record followed here is US20250388565A1, “ESTROGEN RECEPTOR ALPHA DEGRADERS AND METHODS OF USE THEREOF” (Relay Therapeutics, Inc., priority 2022, published 2025).

Molecules are shown by their SMILES. Some results are limits rather than exact numbers.

The assay has as its target T1, ERα protein (HiBiT-tagged) in ESR1_HiBiT KI MCF7 cells (Homo sapiens, UniProt P03372).
T1 sequence (P03372 1-595): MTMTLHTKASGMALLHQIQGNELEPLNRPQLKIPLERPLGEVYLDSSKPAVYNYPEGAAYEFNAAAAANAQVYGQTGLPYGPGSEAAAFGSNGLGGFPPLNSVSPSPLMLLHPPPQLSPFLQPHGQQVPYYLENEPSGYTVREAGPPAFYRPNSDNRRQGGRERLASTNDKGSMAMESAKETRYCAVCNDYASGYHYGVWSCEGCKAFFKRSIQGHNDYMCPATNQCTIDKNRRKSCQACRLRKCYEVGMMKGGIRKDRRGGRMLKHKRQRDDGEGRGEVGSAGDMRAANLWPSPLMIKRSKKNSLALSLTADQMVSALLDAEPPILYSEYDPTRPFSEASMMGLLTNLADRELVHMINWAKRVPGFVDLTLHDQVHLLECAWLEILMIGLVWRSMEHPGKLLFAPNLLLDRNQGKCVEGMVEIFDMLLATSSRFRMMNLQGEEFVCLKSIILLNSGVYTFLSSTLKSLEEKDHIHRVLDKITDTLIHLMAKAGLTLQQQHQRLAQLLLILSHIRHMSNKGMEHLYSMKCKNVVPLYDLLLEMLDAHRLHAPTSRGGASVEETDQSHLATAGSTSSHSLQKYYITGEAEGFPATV
The assay can be described thus: Nano Glo HiBiT Lytic Degradation Assay. The assay is classed as cell-based. As to conditions: 6 hours with compound, 14-point dose response 1:3, bell-shape curve fit, half-maximal effect of first Hill model, read-out: MCF7 ESR1 HiBiT - (DC50). As to the method:
Selected compounds of the present disclosure were tested in a Nano Glo HiBiT Lytic Degradation Assay to measure the level of ERα protein degradation in MCF7 cells.
Cell culture: ESR1_HiBiT KI MCF7 cells were maintained in growth media without antibiotics. Cells were maintained in exponential growth phase, between 40% and 90% confluency.
Cell seeding: Cells were counted using a Vi-Cell and seeded in a 384-well flat-bottom microplate (cell culture-treated) at 4000 cells/well in 25 μL of growth medium using a BioTek MultiFlo Multimode Dispenser. Plates were incubated for 24 h at 37° C., 5% CO2, >95% relative humidity.
Compound preparation: Compounds were screened as 14-point dose response curves 1:3 dilutions. DMSO is used as the vehicle control and all wells were normalized to the same final DMSO concentration (0.1% v/v). Compounds were dosed using an Echo Acoustic Liquid Handler, 25 nL of 1000× (10 mM top concentration) DMSO stock/well. Cells were incubated with compounds for 6 hours at 37° C., 5% CO2, >95% relative humidity. Each compound was run in duplicate.
Nano Glo HiBiT Lytic Degradation Assay: HiBiT-tagged ERα protein levels were quantified using a Nano Glo HiBiT Lytic Degradation Assay following the manufacturer's protocol. Briefly, the Nano-Glo® HiBiT Lytic Reagent was prepared by diluting the LgBiT Protein reagent (1:100) and the Nano-Glo® HiBiT Lytic Substrate (1:50) into Nano-Glo® HiBiT Lytic Buffer at room temperature. The 384-well microplate were equilibrated to room temperature and 25 μL of Nano-Glo® HiBiT Lytic Reagent was added to each well. Samples were mixed by placing the 384-well microplate on an orbital shaker for 10 minutes. Luminescence was measured using an EnVision 2105 Multimode Plate Reader.
Data processing and analysis: Background signal (wells containing growth medium without cells) was subtracted from individual relative light units (RLU) values and the resulting values were normalized to the DMSO control well values. Dose responses were analyzed with Genedata Screener® using a bell-shape curve fit and the concentrations corresponding to the half-maximal effect of the first Hill model were used as DC50 values.
(In general: With HiBiT, luminescence reflects the tagged protein that the partner subunit can reach.)

As a reminder, the DC50 is the midpoint of the concentration-degradation curve. For the compound `O=C1CC[C@H](N2Cc3cc(N4CCN(CC5CCN(c6ccc([C@H]7c8ccc(O)cc8CC[C@@]78CCCc7ccccc78)cc6)CC5)CC4)ccc3C2=O)C(=O)N1` (single isomer, unassigned) [Compound I-266], the DC50 is 17 nM.

On to `C[C@H]1OC2(CCCCC2)[C@H](c2ccc(N3CCC(CN4CCN(c5ccc6c(c5)CN([C@H]5CCC(=O)NC5=O)C6=O)CC4)CC3)cc2)c2ccc(O)cc21` (single isomer, unassigned) [Compound I-269], for which the DC50 was determined as 6 nM.

Regarding `C[C@@H]1OC2(CCCCC2)[C@@H](c2ccc(N3CCC(CN4CCN(c5ccc6c(c5)CN([C@H]5CCC(=O)NC5=O)C6=O)CC4)CC3)cc2)c2ccc(O)cc21` (single isomer, unassigned) [Compound I-270], the DC50 was at least 10000 nM.

Turning to `O=C1CC[C@H](N2Cc3cc(N4CCN(CC5CCN(c6ccc([C@@H]7c8ccc(O)cc8CO[C@]78CCCc7ccccc78)cc6)CC5)CC4)ccc3C2=O)C(=O)N1` (single isomer, unassigned) [Compound I-272], the DC50 was 4 nM.

On to `O=C1CC[C@H](N2Cc3cc(N4CCN(CC5CCN(c6ccc([C@H]7c8ccc(O)cc8CO[C@@]78CCCc7ccccc78)cc6)CC5)CC4)ccc3C2=O)C(=O)N1` (single isomer, unassigned) [Compound I-273], for which the DC50 came to 6 nM.

In the case of `Cn1c(=O)n([C@H]2CCC(=O)NC2=O)c2ccc(N3CCN(CC4CCN(c5ccc([C@@H]6c7ccc(O)cc7CC[C@@H]6c6ccccc6)cc5)CC4)CC3)cc21` (single isomer, unassigned) [Compound I-275], the 50% degradation concentration (DC50) was found to be 0.25 nM.

With `Cn1c(=O)n([C@@H]2CCC(=O)NC2=O)c2ccc(N3CCN(CC4CCN(c5ccc([C@@H]6c7ccc(O)cc7CC[C@@H]6c6ccccc6)cc5)CC4)CC3)cc21` (single isomer, unassigned) [Compound I-276], the DC50 was 0.5 nM.

Turning to `Cn1c(=O)n([C@H]2CCC(=O)NC2=O)c2ccc(N3CCN(CC4CCN(c5ccc([C@@H]6c7ccc(O)cc7C(F)(F)C[C@@H]6c6ccccc6)cc5)CC4)CC3)cc21` (single isomer, unassigned) [Compound I-277], the DC50 turned out to be 0.3 nM.

As to `Cn1c(=O)n([C@@H]2CCC(=O)NC2=O)c2ccc(N3CCN(CC4CCN(c5ccc([C@@H]6c7ccc(O)cc7C(F)(F)C[C@@H]6c6ccccc6)cc5)CC4)CC3)cc21` (single isomer, unassigned) [Compound I-278], the DC50 is 12.1 nM.

As for `O=C1CCC(c2ccc(N3CC[C@]4(CCN(CC5CCN(c6ccc([C@@H]7c8ccc(O)cc8CC[C@@H]7c7ccccc7)cc6)CC5)C4)C3)cc2)C(=O)N1` (single isomer, unassigned) [Compound I-279], the DC50 was 16.5 nM.

For the compound `O=C1CCC(c2ccc(N3CC[C@@]4(CCN(CC5CCN(c6ccc([C@@H]7c8ccc(O)cc8CC[C@@H]7c7ccccc7)cc6)CC5)C4)C3)cc2)C(=O)N1` (single isomer, unassigned) [Compound I-280], the DC50 came to 0.76 nM.

`O=C1CCC(c2ccc(N3CC[C@]4(CCN(CC5CCN(c6ccc([C@@H]7c8ccc(O)cc8C(F)(F)C[C@@H]7c7ccccc7)cc6)CC5)C4)C3)cc2)C(=O)N1` (single isomer, unassigned) [Compound I-281]: the DC50 came out at 0.51 nM.

Turning to `O=C1CCC(c2ccc(N3CCC4(CCN(CC5CCN(c6ccc([C@@H]7c8ccc(O)cc8C(F)(F)C[C@@H]7c7ccccc7)cc6)CC5)C4)C3)cc2)C(=O)N1` (single isomer, unassigned) [Compound I-282, 3-(4-((R*)-7-((1-(4-((1R,2S)-4,4-difluoro-6-hydroxy-2-phenyl-1,2,3,4-tetrahydronaphthalen-1-yl)phenyl)piperidin-4-yl)methyl)-2,7-diazaspiro[4.4]nonan-2-yl)phenyl)piperidine-2,6-dione], the DC50 was found to be 24.5 nM.

Turning to `O=C1CC[C@H](c2ccc(N3CCC4(CCN(CC5CCN(c6ccc([C@@H]7c8ccc(O)cc8CC[C@@H]7c7ccccc7)cc6)CC5)C4)CC3)cc2)C(=O)N1` (single isomer, unassigned) [Compound I-283], the DC50 turned out to be 5 nM.

On to `O=C1CC[C@@H](c2ccc(N3CCC4(CCN(CC5CCN(c6ccc([C@@H]7c8ccc(O)cc8CC[C@@H]7c7ccccc7)cc6)CC5)C4)CC3)cc2)C(=O)N1` (single isomer, unassigned) [Compound I-284], for which the DC50 was at least 10000 nM.

As for `O=C1CC[C@H](c2ccc(N3CCC4(CCN(CC5CCN(c6ccc([C@@H]7c8ccc(O)cc8C(F)(F)C[C@@H]7c7ccccc7)cc6)CC5)C4)CC3)cc2)C(=O)N1` (single isomer, unassigned) [Compound I-285], the DC50 stood at 0.27 nM.

As for `O=C1CC[C@@H](c2ccc(N3CCC4(CCN(CC5CCN(c6ccc([C@@H]7c8ccc(O)cc8C(F)(F)C[C@@H]7c7ccccc7)cc6)CC5)C4)CC3)cc2)C(=O)N1` (single isomer, unassigned) [Compound I-286], the DC50 came out at 91.1 nM.

As to `O=C1CCN(c2ccc(N3CC[C@]4(CCN(CC5CCN(c6ccc([C@@H]7c8ccc(O)cc8CC[C@@H]7c7ccccc7)cc6)CC5)C4)C3)cc2)C(=O)N1` (single isomer, unassigned) [Compound I-287], the DC50 was at least 10000 nM.

For `O=C1CCN(c2ccc(N3CC[C@@]4(CCN(CC5CCN(c6ccc([C@@H]7c8ccc(O)cc8CC[C@@H]7c7ccccc7)cc6)CC5)C4)C3)cc2)C(=O)N1` (single isomer, unassigned) [Compound I-288], the DC50 was at least 10000 nM.

For the compound `O=C1CCN(c2ccc(N3CCC4(CCN(CC5CCN(c6ccc([C@@H]7c8ccc(O)cc8C(F)(F)C[C@@H]7c7ccccc7)cc6)CC5)C4)C3)cc2)C(=O)N1` (single isomer, unassigned) [Compound I-289], the half-maximal degradation concentration (DC50) is at least 10000 nM.

As to `O=C1CCN(c2ccc(N3CC[C@@]4(CCN(CC5CCN(c6ccc([C@@H]7c8ccc(O)cc8C(F)(F)C[C@@H]7c7ccccc7)cc6)CC5)C4)C3)cc2)C(=O)N1` (single isomer, unassigned) [Compound I-290], the DC50 was 0.22 nM.

With `Cc1cc(N2CCC3(CCN(CC4CCN(c5ccc([C@@H]6c7ccc(O)cc7C(F)(F)C[C@@H]6c6ccccc6)cc5)CC4)C3)CC2)ccc1N1CCC(=O)NC1=O` (single isomer, unassigned) [Compound I-294], the DC50 is 0.28 nM.

`Cn1nc([C@H]2CCC(=O)NC2=O)c2ccc(N3CCN(CC4CCN(c5ccc([C@@H]6c7ccc(O)cc7CC[C@@H]6c6ccccc6)cc5)CC4)CC3)cc21` (single isomer, unassigned) [Compound I-295]: the DC50 amounted to 0.84 nM.

For `Cn1nc([C@@H]2CCC(=O)NC2=O)c2ccc(N3CCN(CC4CCN(c5ccc([C@@H]6c7ccc(O)cc7CC[C@@H]6c6ccccc6)cc5)CC4)CC3)cc21` (single isomer, unassigned) [Compound I-296], the DC50 worked out at 1 nM.

For the compound `Cn1nc(C2CCC(=O)NC2=O)c2ccc(N3CCN(CC4CCN(c5ccc([C@@H]6c7ccc(O)cc7C(F)(F)C[C@@H]6c6ccccc6)cc5)CC4)CC3)cc21` (single isomer, unassigned) [Compound I-297], the half-maximal degradation concentration (DC50) is 0.74 nM.

For the compound `Cn1nc(C2CCC(=O)NC2=O)c2ccc(N3CCN(CC4CCN(c5ccc([C@@H]6c7ccc(O)cc7C(F)(F)C[C@@H]6c6ccccc6)cc5)CC4)CC3)cc21` (single isomer, unassigned) [Compound I-298], the DC50 stood at 1 nM.

In the case of `Cc1ccc([C@H]2CC(F)(F)c3cc(O)ccc3[C@H]2c2ccc(N3CCC(CN4CCN(c5ccc6c(c5)CN([C@H]5CCC(=O)NC5=O)C6=O)CC4)CC3)cc2)cc1` (single isomer, unassigned) [Compound I-320, (S)-3-(5-(4-((1-(4-((1*S, 2*R)-4,4-difluoro-6-hydroxy-2-(p-tolyl)-1,2,3,4-tetrahydronaphthalen-1-yl)phenyl)piperidin-4-yl)methyl)piperazin-1-yl)-1-oxoisoindolin-2-yl)piperidine-2,6-dione], the DC50 worked out at 0.006 nM.
